According to publication PMC6874530, “Structural analysis identifies an escape route from the adverse lipogenic effects of liver X receptor ligands” (Communications Biology, 2019):

Assays:
[1] = target: T1, LXRα LBD (Homo sapiens, UniProt Q13133); test: biochemical; conditions: Receptor-binding affinity pKi LXRα, value (SD, n independent experiments)
T1 sequence (Q13133 200-447): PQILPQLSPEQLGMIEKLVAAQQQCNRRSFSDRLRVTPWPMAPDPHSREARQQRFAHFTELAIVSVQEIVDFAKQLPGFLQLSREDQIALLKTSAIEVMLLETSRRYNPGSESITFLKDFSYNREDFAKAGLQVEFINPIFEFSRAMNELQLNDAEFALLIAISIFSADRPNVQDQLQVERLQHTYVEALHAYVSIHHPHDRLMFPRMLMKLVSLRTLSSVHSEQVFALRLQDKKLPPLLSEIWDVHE
Source text: (§5) The compounds were run in triplicate (binding assay) or in quadruplicate (transactivation assay). Standard deviations are indicated for individual experiments run more than once.

[2] = target: T1, LXRα LBD; test: differential HDX-MS of LXRα LBD (apo vs ligand-bound); design: Human his-tagged LXRα LBD (200-447); His tag; made in house; host or cells: Escherichia coli BL21(DE3); conditions: HDX-MS
Procedure: (§1) Prior to the deuterium incorporation experiments, 10 µM apo LXR was incubated with 10× excess of ligand or equal volume of DMSO for 30 min at room temperature. In the experiments with cofactors, 15× excess of the SRC1 coactivator peptide and the NCOR1 corepressor peptide were added to the ligand-bound or apo proteins, respectively, and incubated for 30 min at room temperature. […] A fully deuterated sample was generated by incubating protein with 4 M guanidine-HCl in D2O for 30 min at 45 °C. Exchange reactions were performed with a CTC PAL sample handling robot (LEAP Technologies). Labeling times were 30, 60, 180, 600, and 1800 s in the kinetics experiments. Differential HDX of a complete compound selection was measured after 30 and 600 s of labeling time points. Reactions were conducted by incubating 4 µl of LXR with 50 µl of D2O buffer (containing 25 mM Tris-HCl (pD 7.6), 50 mM NaCl, 10% glycerol, and 1 mM TCEP). The exchange reaction was stopped by the addition of 50 µl of quench solution (3 M urea, 0.1% TFA) followed by immediate injection into a Enzymate BEH Pepsin 2.1 × 30 mm Column (Waters, UK) for protein digestion (2 min at 24 °C). Peptic digest was further injected on a Waters nanoACQUITY UPLC System where peptides were first desalted by trapping for 3 min on a VanGuard Pre-Column Acquity UPLC BEH C18 (1.7 μm; 2.1 × 5 mm), and then eluted over a 6-min 5–40% (vol/vol) acetonitrile (containing 0.1% formic acid) gradient into a Waters Synapt G2-Si mass spectrometer. Peptide separation was conducted at 0.1 °C. All exchange reactions were performed in triplicates.
(§2) Peptides from three samples of non-deuterated LXR were identified by using the ProteinLynx Global Server (PLGS Waters, UK). Peptides with an intensity of over 5000, a mass error < 5 ppm, and present in at least two of the three data acquisitions were pooled and imported into the DynamX data analysis software (Waters, UK). After a first round of automated spectral processing by using DynamX, each peptide was inspected manually for suitability for further analysis.
(§3) For pairwise comparison, MEMHDX software was used to identify statistically significant changes of deuterium uptake. For all peptides, a value of relative exchange per amino acid was corrected to back exchange. The mean deuteration level per amino acid was calculated by using Matlab (Mathworks)[69] and subsequently mapped onto the crystal structures with PyMOL (Schrodinger LLC). For structural representation, loop modeling with MOE (Chemical Computing Group Inc.) was applied on 2ACL.pdb file for LXRα LBD, and 1PQC.pdb for LXRβ LBD.

[3] = target: T2, LXRβ (Homo sapiens, UniProt P55055); test: Gal4 one hybrid reporter gene (transactivation) assay in U2OS cells, LXRβ; format: cell-based
T2 construct: expression vectors pSG5-Gal4-LXRα LBD or pSG5-Gal4-LXRβ LBD; expressed in transfected cells; host or cells: U2OS osteosarcoma cells
T2 sequence (P55055 222-460 limits assumed): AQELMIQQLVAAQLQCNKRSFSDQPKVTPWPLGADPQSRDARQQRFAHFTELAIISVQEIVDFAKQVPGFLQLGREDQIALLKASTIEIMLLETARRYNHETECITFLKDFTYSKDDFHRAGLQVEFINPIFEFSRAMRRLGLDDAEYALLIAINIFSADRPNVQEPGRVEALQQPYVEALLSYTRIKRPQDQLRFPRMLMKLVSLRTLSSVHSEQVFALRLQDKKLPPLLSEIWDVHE
Procedure: (§4) Transactivation assays were performed in U2OS osteosarcoma cells (ATCC, USA). […] Ligands were added at ten different concentrations 2 h post transfection and the luciferase activity was measured after 40 h.

[4] = target: T3, LXRβ LBD (Homo sapiens, UniProt P55055); test: differential HDX-MS of LXRβ LBD (apo vs ligand-bound); design: human his-tagged LXRβ LBD (216-461); His tag; made in house; host or cells: Escherichia coli BL21(DE3); conditions: after 30 s of deuterium exchange
T3 sequence (P55055 215-460 limits assumed): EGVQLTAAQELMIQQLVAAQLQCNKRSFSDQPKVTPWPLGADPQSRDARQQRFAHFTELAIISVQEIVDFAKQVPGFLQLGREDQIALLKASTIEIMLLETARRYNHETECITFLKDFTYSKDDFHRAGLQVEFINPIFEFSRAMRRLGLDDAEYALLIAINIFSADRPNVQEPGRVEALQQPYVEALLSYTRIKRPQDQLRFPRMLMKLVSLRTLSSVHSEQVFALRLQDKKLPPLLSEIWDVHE
Procedure: as §1, §2, §3

[5] = target: T4, LXRα (Homo sapiens, UniProt Q13133); test: Gal4 one hybrid reporter gene (transactivation) assay in U2OS cells, LXRα; format: cell-based
T4 construct: expression vectors pSG5-Gal4-LXRα LBD or pSG5-Gal4-LXRβ LBD; expressed in transfected cells; host or cells: U2OS osteosarcoma cells
T4 sequence (Q13133 209-447 limits assumed): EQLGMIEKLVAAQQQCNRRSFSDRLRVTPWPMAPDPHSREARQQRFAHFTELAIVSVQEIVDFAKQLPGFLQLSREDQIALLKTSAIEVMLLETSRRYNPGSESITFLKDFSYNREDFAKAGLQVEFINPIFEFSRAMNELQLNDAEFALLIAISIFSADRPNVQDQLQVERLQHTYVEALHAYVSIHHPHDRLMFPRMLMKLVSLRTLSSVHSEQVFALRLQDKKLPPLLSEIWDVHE
Procedure: as §4

[6] = target: T5, LXRβ/SRC1 (Homo sapiens, UniProt P55055); test: SPR cofactor recruitment, LXRβ LBD binding to immobilized SRC1 coactivator peptide
T5 construct: human his-tagged LXRβ LBD (216-461); His tag; made in house; host or cells: Escherichia coli BL21(DE3)
T5 sequence (P55055 215-460 limits assumed): T3 sequence (P55055 215-460 limits assumed)
T5 sequence (Q15788 with tags, fused parts or gaps partner limits assumed): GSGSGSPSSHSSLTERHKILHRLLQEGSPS
Procedure: The peptides carried an N-terminal biotin for surface immobilization on a Xantec NID200M Sensor Chip (NTA-derivatized carboxymethyldextran hydrogel, XanTec bioanalytics GmbH) preloaded with Ni^2+. […] LXRα and LXRβ LBD proteins were serially diluted in SPR running buffer (10 mM HEPES, 150 mM NaCl, and 0.05% Tween 20, pH 7.4) to a broad range of concentrations (0.02–10 µM) and equilibrated with tested compound (50 μM) prior to the sample injection over a modified biosensor surface. LXR-ligand complexes were injected in quick succession for 120 s over immobilized cofactor peptides and reference surfaces along with blank samples followed by 900 s of dissociation. The binding level at equilibrium was monitored for all samples, including the reference sample that contained DMSO at equal amount as tested compounds. All data were normalized to this reference sample in order to quantify the effects on peptide binding without bias by receptor instability. The surface was regenerated with 0.5% (w/v) SDS after each injection. Binding responses in the steady-state region of the sensorgrams were plotted against LXR LBD concentration to determine the overall equilibrium-binding affinity by fitting the data to nonlinear regression (Prism 8; GraphPad).

[7] = target: T3, LXRβ LBD; test: biochemical; conditions: Receptor-binding affinity pKi LXRβ, value (SD, n independent experiments)
Source text: as §5

For `C[C@H](CC[C@@H]1OC1(C)C)[C@H]1CC[C@H]2[C@@H]3CC=C4C[C@@H](O)CC[C@]4(C)[C@H]3CC[C@]12C` [24,25EC, 24(S),25-epoxycholesterol, reference compound], the Ki [1] was 275 nM, the “stabilization of LXRα H12” value [2] was “did not stabilize LXRα H12” and the “agonist activity in the Gal4 reporter gene assay, LXRβ” value [3] was “No signal was observed”. For the same molecule, the EC50 ([3]; LXRβ transactivation pEC50, U2OS cells, Gal4-LXRβ LBD, value (SD, n)) was greater than 50100 nM, the “protection of LXRβ H11–H12 from deuterium exchange” value [4] was 10% and the “agonist activity in the Gal4 reporter gene assay, LXRα” value [5] was “No signal was observed”. For the same molecule, the EC50 ([5]; U2OS cells, Gal4-LXRα LBD, value (SD, n), read-out: LXRα transactivation pEC50 (converted)) was greater than 50100 nM, the Kd [6] was 2500 nM and the Ki [7] was 132 nM.
